The values below come from the supplement of paper PMC10307832.

Assay in all cases: relative viability (nuclei count vs DMSO), 5 days (fraction); higher = more cells survive
Compound in the assay “Daporinad + Alpelisib”: O=C(/C=C/c1cccnc1)NCCCCC1CCN(C(=O)c2ccccc2)CC1 [Daporinad] + Cc1nc(NC(=O)N2CCC[C@H]2C(N)=O)sc1-c1ccnc(C(C)(C)C(F)(F)F)c1 [Alpelisib] (partner 2 µM)
The method in brief:
(§1)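 Relative viability equals treated-well nuclei counts divided by vehicle-well nuclei counts. Counts came from 4× images of lung cancer cell lines grown in 1536-well plates for 5 days after pin-tool dosing on the day after seeding. Dosing used one drug alone or a fixed anchor-drug dose plus five library-drug doses (not always all listed) in √10 steps, and values are medians of duplicate plates.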

Compound in the assay “R406 + Decitabine”: COc1cc(Nc2ncc(F)c(Nc3ccc4c(n3)NC(=O)C(C)(C)O4)n2)cc(OC)c1OC [R406] + Nc1ncn([C@H]2C[C@H](O)[C@@H](CO)O2)c(=O)n1 [Decitabine] (partner 2 µM)
The method in brief: as §1

Compound in the assay “R406 + Trametinib”: COc1cc(Nc2ncc(F)c(Nc3ccc4c(n3)NC(=O)C(C)(C)O4)n2)cc(OC)c1OC [R406] + CC(=O)Nc1cccc(-n2c(=O)n(C3CC3)c(=O)c3c(Nc4ccc(I)cc4F)n(C)c(=O)c(C)c32)c1 [Trametinib] (partner 0.02 µM)
The method in brief:
as §1

Compound in the assay “Daporinad + Crizotinib”: O=C(/C=C/c1cccnc1)NCCCCC1CCN(C(=O)c2ccccc2)CC1 [Daporinad] + C[C@@H](Oc1cc(-c2cnn(C3CCNCC3)c2)cnc1N)c1c(Cl)ccc(F)c1Cl [Crizotinib] (partner 1 µM)
The method in brief: as §1

In the case of UMC-11, the relative viability is 0.915 with Daporinad + Alpelisib (first compound 0.0005 µM); 0.979 with Daporinad + Alpelisib (first compound 0.001581 µM); 1.07 with Daporinad + Alpelisib (first compound 0.005 µM); 1.1 in the assay with Daporinad + Alpelisib (first compound 0.01581 µM); 0.618 in the assay with R406 + Decitabine (first compound 0.08 µM); 0.703 in the assay with R406 + Decitabine (first compound 0.253 µM). In addition, the relative viability with R406 + Decitabine (first compound 0.8 µM) was found to be 0.75; with R406 + Decitabine (first compound 2.53 µM), 1.34; with R406 + Decitabine (first compound 8 µM), 0.312; with R406 + Trametinib (first compound 0.08 µM) it was 0.724; in the assay with R406 + Trametinib (first compound 0.253 µM) it was 0.959; in the assay with R406 + Trametinib (first compound 0.8 µM), 0.776. Further, the relative viability with R406 + Trametinib (first compound 2.53 µM) came to 0.874; with R406 + Trametinib (first compound 8 µM), 0.482; with Daporinad + Crizotinib (first compound 0.0005 µM), 0.672; in the assay with Daporinad + Crizotinib (first compound 0.001581 µM), 0.641; with Daporinad + Crizotinib (first compound 0.005 µM), 0.852; with Daporinad + Crizotinib (first compound 0.01581 µM) it was 0.656.
